Test results as given in ChEMBL document CHEMBL1909046, “DrugMatrix in vitro pharmacology data”.

Molecular target: Delta-type opioid receptor (Homo sapiens, UniProt P41143); note: in other assays of this panel Not Active means under 50% inhibition at 10 µM
Format: cell membranes, HEK293, Membrane
Settings: hek293

Chain of Delta-type opioid receptor (P41143 whole entry): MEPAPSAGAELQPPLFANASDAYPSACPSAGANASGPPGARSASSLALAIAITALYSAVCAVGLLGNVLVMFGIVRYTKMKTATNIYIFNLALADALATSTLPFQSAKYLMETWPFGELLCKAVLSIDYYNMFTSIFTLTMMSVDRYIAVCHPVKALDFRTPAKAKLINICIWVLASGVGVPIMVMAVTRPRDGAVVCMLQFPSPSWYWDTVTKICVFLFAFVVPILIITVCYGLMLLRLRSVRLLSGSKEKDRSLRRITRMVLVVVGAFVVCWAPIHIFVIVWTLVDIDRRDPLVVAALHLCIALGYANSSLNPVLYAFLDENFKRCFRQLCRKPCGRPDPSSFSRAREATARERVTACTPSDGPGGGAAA

| Structure (SMILES) | IC50 |
| --- | --- |
| COc1cc2c3cc1Oc1cc(ccc1O)C[C@@H]1c4c(cc(OC)c(O)c4Oc4ccc(cc4)C[C@@H]3N(C)CC2)CC[N+]1(C)C.[Cl-] | Not Active |
| CN(Cc1ccc(C(C)(C)C)cc1)Cc1cccc2ccccc12 [BUTENAFINE] | Not Active |
| Sc1ncnc2nc[nH]c12 [MERCAPTOPURINE ANHYDROUS] | Not Active |
| CC(C)(C)NCC(O)c1cc(Cl)c(N)c(Cl)c1 (configuration not stated) [CLENBUTEROL] | Not Active |
| Nc1nc2c(ncn2COCCO)c(=O)[nH]1 [ACYCLOVIR] | Not Active |
| c1ccc2c(c1)c1cccc3ccc4cccc2c4c31 [BENZO[E]PYRENE] | Not Active |
| O=C(O)CCCc1ccc(N(CCCl)CCCl)cc1 [CHLORAMBUCIL] | Not Active |

Molecular target: T1, C-X-C chemokine receptor type 1 (Homo sapiens, UniProt P25024); note: in other assays of this panel Not Active means under 50% inhibition at 10 µM
T1 sequence (P25024 whole entry): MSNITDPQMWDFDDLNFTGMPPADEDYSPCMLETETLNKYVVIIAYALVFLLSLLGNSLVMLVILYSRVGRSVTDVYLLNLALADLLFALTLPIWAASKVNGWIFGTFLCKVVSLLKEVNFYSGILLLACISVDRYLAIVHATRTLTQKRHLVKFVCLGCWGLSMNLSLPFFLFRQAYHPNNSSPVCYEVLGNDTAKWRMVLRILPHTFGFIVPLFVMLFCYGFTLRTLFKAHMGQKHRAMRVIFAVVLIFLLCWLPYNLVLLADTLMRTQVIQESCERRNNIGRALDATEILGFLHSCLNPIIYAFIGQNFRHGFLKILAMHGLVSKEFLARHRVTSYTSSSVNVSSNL
Settings: not given

| Structure (SMILES) | IC50 |
| --- | --- |
| COc1cc2c3cc1Oc1cc(ccc1O)C[C@@H]1c4c(cc(OC)c(O)c4Oc4ccc(cc4)C[C@@H]3N(C)CC2)CC[N+]1(C)C.[Cl-] | Not Active |
| CN(Cc1ccc(C(C)(C)C)cc1)Cc1cccc2ccccc12 [BUTENAFINE] | Not Active |
| Sc1ncnc2nc[nH]c12 [MERCAPTOPURINE ANHYDROUS] | Not Active |
| CC(C)(C)NCC(O)c1cc(Cl)c(N)c(Cl)c1 (configuration not stated) [CLENBUTEROL] | Not Active |
| Nc1nc2c(ncn2COCCO)c(=O)[nH]1 [ACYCLOVIR] | Not Active |
| c1ccc2c(c1)c1cccc3ccc4cccc2c4c31 [BENZO[E]PYRENE] | Not Active |
| O=C(O)CCCc1ccc(N(CCCl)CCCl)cc1 [CHLORAMBUCIL] | Not Active |

Molecular target: C-C chemokine receptor type 2 (Homo sapiens, UniProt P41597); note: in other assays of this panel Not Active means under 50% inhibition at 10 µM
Format: cell membranes, CHO-K1, Membrane
Settings: cho-k1

Chain of C-C chemokine receptor type 2 (P41597 whole entry): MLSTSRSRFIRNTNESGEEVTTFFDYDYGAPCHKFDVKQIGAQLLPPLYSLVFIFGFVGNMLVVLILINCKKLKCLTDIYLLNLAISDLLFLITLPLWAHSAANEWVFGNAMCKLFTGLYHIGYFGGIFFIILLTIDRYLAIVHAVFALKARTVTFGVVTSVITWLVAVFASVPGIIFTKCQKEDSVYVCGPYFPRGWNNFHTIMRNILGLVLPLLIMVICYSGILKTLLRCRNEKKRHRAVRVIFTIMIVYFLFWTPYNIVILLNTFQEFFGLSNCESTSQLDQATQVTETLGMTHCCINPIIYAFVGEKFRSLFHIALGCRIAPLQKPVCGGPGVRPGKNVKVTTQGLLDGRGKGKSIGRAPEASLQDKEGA

| Structure (SMILES) | IC50 |
| --- | --- |
| COc1cc2c3cc1Oc1cc(ccc1O)C[C@@H]1c4c(cc(OC)c(O)c4Oc4ccc(cc4)C[C@@H]3N(C)CC2)CC[N+]1(C)C.[Cl-] | Not Active |
| CN(Cc1ccc(C(C)(C)C)cc1)Cc1cccc2ccccc12 [BUTENAFINE] | Not Active |
| Sc1ncnc2nc[nH]c12 [MERCAPTOPURINE ANHYDROUS] | Not Active |
| CC(C)(C)NCC(O)c1cc(Cl)c(N)c(Cl)c1 (configuration not stated) [CLENBUTEROL] | Not Active |
| Nc1nc2c(ncn2COCCO)c(=O)[nH]1 [ACYCLOVIR] | Not Active |
| c1ccc2c(c1)c1cccc3ccc4cccc2c4c31 [BENZO[E]PYRENE] | Not Active |
| O=C(O)CCCc1ccc(N(CCCl)CCCl)cc1 [CHLORAMBUCIL] | Not Active |

Test system: not listed separately
Assay: DRUGMATRIX: Tumor Necrosis Factor (TNF), Non-Selective radioligand binding (ligand: [125I] TNF-alpha)
Format: cell membranes, Membrane
Settings: u-937; Not Active = under 50% inhibition at 10 µM

| Structure (SMILES) | IC50 | Ki |
| --- | --- | --- |
| COc1cc2c3cc1Oc1cc(ccc1O)C[C@@H]1c4c(cc(OC)c(O)c4Oc4ccc(cc4)C[C@@H]3N(C)CC2)CC[N+]1(C)C.[Cl-] | Not Active | Not Active |
| CN(Cc1ccc(C(C)(C)C)cc1)Cc1cccc2ccccc12 [BUTENAFINE] | Not Active | Not Active |
| Sc1ncnc2nc[nH]c12 [MERCAPTOPURINE ANHYDROUS] | Not Active | Not Active |
| CC(C)(C)NCC(O)c1cc(Cl)c(N)c(Cl)c1 (configuration not stated) [CLENBUTEROL] | Not Active | Not Active |
| Nc1nc2c(ncn2COCCO)c(=O)[nH]1 [ACYCLOVIR] | Not Active | Not Active |
| c1ccc2c(c1)c1cccc3ccc4cccc2c4c31 [BENZO[E]PYRENE] | Not Active | Not Active |
| O=C(O)CCCc1ccc(N(CCCl)CCCl)cc1 [CHLORAMBUCIL] | Not Active | Not Active |

Molecular target: T2, Amine oxidase [flavin-containing] A (Homo sapiens, UniProt P21397)
T2 sequence (P21397 whole entry): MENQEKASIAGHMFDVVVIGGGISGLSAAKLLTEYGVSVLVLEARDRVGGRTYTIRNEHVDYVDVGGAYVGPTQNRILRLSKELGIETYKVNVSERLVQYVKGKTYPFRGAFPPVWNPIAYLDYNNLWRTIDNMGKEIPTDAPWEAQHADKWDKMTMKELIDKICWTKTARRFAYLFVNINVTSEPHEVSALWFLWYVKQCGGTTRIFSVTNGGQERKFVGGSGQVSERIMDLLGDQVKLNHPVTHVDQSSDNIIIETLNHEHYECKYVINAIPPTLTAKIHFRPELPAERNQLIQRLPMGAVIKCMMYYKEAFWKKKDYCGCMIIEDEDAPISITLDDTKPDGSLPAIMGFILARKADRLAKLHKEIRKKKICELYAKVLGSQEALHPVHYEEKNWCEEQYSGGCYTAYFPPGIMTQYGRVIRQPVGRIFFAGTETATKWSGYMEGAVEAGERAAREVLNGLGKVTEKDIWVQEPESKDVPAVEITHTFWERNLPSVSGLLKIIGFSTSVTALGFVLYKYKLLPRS
Assay: DRUGMATRIX: Monoamine Oxidase MAO-A enzyme inhibition (substrate: Kynuramine)
Parameters: species or system BTI-TN-5B1-4
Settings: bti-tn-5b1-4; Not Active = under 50% inhibition at 10 µM

| Structure (SMILES) | IC50 |
| --- | --- |
| COc1cc2c3cc1Oc1cc(ccc1O)C[C@@H]1c4c(cc(OC)c(O)c4Oc4ccc(cc4)C[C@@H]3N(C)CC2)CC[N+]1(C)C.[Cl-] | Not Active |
| CN(Cc1ccc(C(C)(C)C)cc1)Cc1cccc2ccccc12 [BUTENAFINE] | Not Active |
| Sc1ncnc2nc[nH]c12 [MERCAPTOPURINE ANHYDROUS] | Not Active |
| CC(C)(C)NCC(O)c1cc(Cl)c(N)c(Cl)c1 (configuration not stated) [CLENBUTEROL] | Not Active |
| Nc1nc2c(ncn2COCCO)c(=O)[nH]1 [ACYCLOVIR] | Not Active |
| c1ccc2c(c1)c1cccc3ccc4cccc2c4c31 [BENZO[E]PYRENE] | Not Active |
| O=C(O)CCCc1ccc(N(CCCl)CCCl)cc1 [CHLORAMBUCIL] | Not Active |

Molecular target: T3, Calcitonin receptor (Homo sapiens, UniProt P30988); note: in other assays of this panel Not Active means under 50% inhibition at 10 µM
T3 sequence (P30988 whole entry): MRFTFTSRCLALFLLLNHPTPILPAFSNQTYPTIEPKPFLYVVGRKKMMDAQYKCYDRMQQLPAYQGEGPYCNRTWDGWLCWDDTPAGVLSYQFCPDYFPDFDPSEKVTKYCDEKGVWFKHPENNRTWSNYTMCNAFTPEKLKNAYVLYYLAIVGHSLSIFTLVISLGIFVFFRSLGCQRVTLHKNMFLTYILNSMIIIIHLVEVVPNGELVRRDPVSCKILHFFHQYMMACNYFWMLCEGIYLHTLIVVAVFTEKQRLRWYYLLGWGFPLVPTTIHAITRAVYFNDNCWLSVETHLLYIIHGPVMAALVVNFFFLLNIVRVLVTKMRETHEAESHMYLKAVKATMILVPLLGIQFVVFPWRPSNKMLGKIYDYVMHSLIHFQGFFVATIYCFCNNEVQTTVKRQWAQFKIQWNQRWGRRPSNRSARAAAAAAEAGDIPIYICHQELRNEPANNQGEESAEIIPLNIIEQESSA
Format: cell membranes, Membrane
Settings: t47d

| Structure (SMILES) | IC50 |
| --- | --- |
| COc1cc2c3cc1Oc1cc(ccc1O)C[C@@H]1c4c(cc(OC)c(O)c4Oc4ccc(cc4)C[C@@H]3N(C)CC2)CC[N+]1(C)C.[Cl-] | Not Active |
| CN(Cc1ccc(C(C)(C)C)cc1)Cc1cccc2ccccc12 [BUTENAFINE] | Not Active |
| Sc1ncnc2nc[nH]c12 [MERCAPTOPURINE ANHYDROUS] | Not Active |
| CC(C)(C)NCC(O)c1cc(Cl)c(N)c(Cl)c1 (configuration not stated) [CLENBUTEROL] | Not Active |
| Nc1nc2c(ncn2COCCO)c(=O)[nH]1 [ACYCLOVIR] | Not Active |
| c1ccc2c(c1)c1cccc3ccc4cccc2c4c31 [BENZO[E]PYRENE] | Not Active |
| O=C(O)CCCc1ccc(N(CCCl)CCCl)cc1 [CHLORAMBUCIL] | Not Active |

Molecular target: Substance-P receptor (Homo sapiens, UniProt P25103); note: in other assays of this panel Not Active means under 50% inhibition at 10 µM
Format: cell membranes, CHO, Membrane
Settings: cho

Chain of Substance-P receptor (P25103 whole entry): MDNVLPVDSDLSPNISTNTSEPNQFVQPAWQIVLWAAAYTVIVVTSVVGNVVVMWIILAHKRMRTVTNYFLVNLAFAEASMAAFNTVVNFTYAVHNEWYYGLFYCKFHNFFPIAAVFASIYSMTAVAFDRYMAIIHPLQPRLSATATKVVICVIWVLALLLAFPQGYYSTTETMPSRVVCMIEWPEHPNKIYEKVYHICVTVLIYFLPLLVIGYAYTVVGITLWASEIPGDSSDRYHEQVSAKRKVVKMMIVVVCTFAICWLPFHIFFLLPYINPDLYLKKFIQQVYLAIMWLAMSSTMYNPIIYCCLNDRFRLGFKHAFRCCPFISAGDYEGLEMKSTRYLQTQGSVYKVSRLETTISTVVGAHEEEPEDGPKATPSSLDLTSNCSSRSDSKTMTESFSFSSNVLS

| Structure (SMILES) | IC50 |
| --- | --- |
| COc1cc2c3cc1Oc1cc(ccc1O)C[C@@H]1c4c(cc(OC)c(O)c4Oc4ccc(cc4)C[C@@H]3N(C)CC2)CC[N+]1(C)C.[Cl-] | Not Active |
| CN(Cc1ccc(C(C)(C)C)cc1)Cc1cccc2ccccc12 [BUTENAFINE] | Not Active |
| Sc1ncnc2nc[nH]c12 [MERCAPTOPURINE ANHYDROUS] | Not Active |
| CC(C)(C)NCC(O)c1cc(Cl)c(N)c(Cl)c1 (configuration not stated) [CLENBUTEROL] | Not Active |
| Nc1nc2c(ncn2COCCO)c(=O)[nH]1 [ACYCLOVIR] | Not Active |
| c1ccc2c(c1)c1cccc3ccc4cccc2c4c31 [BENZO[E]PYRENE] | Not Active |
| O=C(O)CCCc1ccc(N(CCCl)CCCl)cc1 [CHLORAMBUCIL] | Not Active |

Test system: not listed separately
Assay: DRUGMATRIX: Calcium Channel Type L, Dihydropyridine radioligand binding (ligand: [3H] Nitrendipine)
Format: cell membranes, Rattus norvegicus, Wistar, Cerebral cortex, Membrane
Settings: Not Active = under 50% inhibition at 10 µM

| Structure (SMILES) | IC50 | Ki |
| --- | --- | --- |
| COc1cc2c3cc1Oc1cc(ccc1O)C[C@@H]1c4c(cc(OC)c(O)c4Oc4ccc(cc4)C[C@@H]3N(C)CC2)CC[N+]1(C)C.[Cl-] | Not Active | Not Active |
| CN(Cc1ccc(C(C)(C)C)cc1)Cc1cccc2ccccc12 [BUTENAFINE] | Not Active | Not Active |
| Sc1ncnc2nc[nH]c12 [MERCAPTOPURINE ANHYDROUS] | Not Active | Not Active |
| CC(C)(C)NCC(O)c1cc(Cl)c(N)c(Cl)c1 (configuration not stated) [CLENBUTEROL] | Not Active | Not Active |
| Nc1nc2c(ncn2COCCO)c(=O)[nH]1 [ACYCLOVIR] | Not Active | Not Active |
| c1ccc2c(c1)c1cccc3ccc4cccc2c4c31 [BENZO[E]PYRENE] | Not Active | Not Active |
| O=C(O)CCCc1ccc(N(CCCl)CCCl)cc1 [CHLORAMBUCIL] | Not Active | Not Active |

Molecular target: Vasopressin V1a receptor (Homo sapiens, UniProt P37288); note: in other assays of this panel Not Active means under 50% inhibition at 10 µM
Format: cell membranes, Membrane
Settings: hek293

Chain of Vasopressin V1a receptor (P37288 whole entry): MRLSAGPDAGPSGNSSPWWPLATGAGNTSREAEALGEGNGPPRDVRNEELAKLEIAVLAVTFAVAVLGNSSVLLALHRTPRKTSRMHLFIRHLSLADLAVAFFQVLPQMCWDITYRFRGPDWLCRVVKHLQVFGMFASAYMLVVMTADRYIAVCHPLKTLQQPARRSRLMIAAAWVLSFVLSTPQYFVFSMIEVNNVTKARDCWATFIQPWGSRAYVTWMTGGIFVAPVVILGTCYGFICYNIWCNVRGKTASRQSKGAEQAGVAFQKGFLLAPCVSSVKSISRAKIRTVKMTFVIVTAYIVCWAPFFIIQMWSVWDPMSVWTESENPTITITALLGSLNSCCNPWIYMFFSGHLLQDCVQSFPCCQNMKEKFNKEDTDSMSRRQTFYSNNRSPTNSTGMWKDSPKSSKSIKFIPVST

| Structure (SMILES) | IC50 |
| --- | --- |
| COc1cc2c3cc1Oc1cc(ccc1O)C[C@@H]1c4c(cc(OC)c(O)c4Oc4ccc(cc4)C[C@@H]3N(C)CC2)CC[N+]1(C)C.[Cl-] | Not Active |
| CN(Cc1ccc(C(C)(C)C)cc1)Cc1cccc2ccccc12 [BUTENAFINE] | Not Active |
| Sc1ncnc2nc[nH]c12 [MERCAPTOPURINE ANHYDROUS] | Not Active |
| CC(C)(C)NCC(O)c1cc(Cl)c(N)c(Cl)c1 (configuration not stated) [CLENBUTEROL] | Not Active |
| Nc1nc2c(ncn2COCCO)c(=O)[nH]1 [ACYCLOVIR] | Not Active |
| c1ccc2c(c1)c1cccc3ccc4cccc2c4c31 [BENZO[E]PYRENE] | Not Active |
| O=C(O)CCCc1ccc(N(CCCl)CCCl)cc1 [CHLORAMBUCIL] | Not Active |
